Data from article PMC6767236, “Selective Cannabinoid 2 Receptor Agonists as Potential Therapeutic Drugs for the Treatment of Endotoxin-Induced Uveitis” (Molecules, 2019).
Values after ≈ are worked out from the molar mass of the structure shown. “Also recorded” adds a separate entry of the source. Where two headings read alike, the source gives them in different places. Marks after values point to notes of the source that are not given here.

How the values were obtained:
mouse CB2R = mouse CB2R (Mus musculus, UniProt P47936); experiment: cAMP assay, mouse CB2R (mouse spleen homogenate); assay type: biochemical
Sequence of mouse CB2R (P47936 whole entry): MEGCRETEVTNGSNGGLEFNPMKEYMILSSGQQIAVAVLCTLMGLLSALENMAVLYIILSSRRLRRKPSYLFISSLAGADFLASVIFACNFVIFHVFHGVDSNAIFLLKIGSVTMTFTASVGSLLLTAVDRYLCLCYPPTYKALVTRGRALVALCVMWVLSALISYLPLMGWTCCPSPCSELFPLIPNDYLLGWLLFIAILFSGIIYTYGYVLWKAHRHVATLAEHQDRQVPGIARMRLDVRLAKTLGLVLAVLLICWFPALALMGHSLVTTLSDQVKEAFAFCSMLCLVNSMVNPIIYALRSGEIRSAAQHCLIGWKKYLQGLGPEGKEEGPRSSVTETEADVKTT
Protocol: The effect of ligands on the forskolin-stimulated accumulation of cAMP was determined using the LANCE ULTRA cAMP kit as per the manufacturer’s instruction (Perkin-Elmer Life Sciences, Boston, MA, USA).
For mouse CB2R cAMP assays, mouse spleen was resuspended in 50 mM of Tris-HCl (pH 7.4), then homogenized with a Potter homogenizer and centrifuged at 1000× g for 10 min. The supernatants were incubated for 30 min with 1-methyl-3-isobutylxanthine (IBMX), then forskolin was added in the presence or absence of ligands. The supernatants were incubated for 30 min in ATP Regeneration Buffer (50 mM HEPES, pH 7.4, 10 mM phosphocreatine, 10 units/mL creatine phosphokinase, 10 μM GTP, 200 μM ATP, 10 mM MgCl2, 250 μM IBMX), and the reaction was stopped by adding lysis buffer. Time-resolved fluorescence was measured with a Victor V Multilabel counter (Perkin-Elmer Life Sciences, Boston, MA, USA).

[1] = system: leukocyte-endothelial interactions in the iridial microcirculation; experiment: Endotoxin-induced uveitis (EIU), intravital microscopy of iridial microcirculation, WT mice; assay type: in vivo, BALB/c mice; conditions: for adherent leukocytes in the iridial microcirculation: WT mice; for Rolling leukocytes per min: LPS + topical 1.5% w/v, mean ± SD, n = 6
Protocol: EIU was induced in BALB/c mice using an intravitreal injection of LPS (2 μL; 125 ng/μL; E. coli 0111:B4 L084M4118V; Sigma-Aldrich, Oakville, ON, Canada) in saline,. Animals were anesthetized with isoflurane (4% induction, 2% maintenance), and were injected intravitreally through the pars plana with sterile saline (control) or LPS solution using a 30G needle and Hamilton syringe (Hamilton Company, Reno, NV, USA) with the assistance of a WILD M37 dissecting microscope (Leitz Canada, Kitchener, ON, Canada). The puncture wound was glued shut with 3M Vetbond Tissue Adhesive (3M Animal Products, St. Paul, MN, USA), and animals were allowed to recover.
IVM was conducted as previously described in Toguri et al. (2014). The iridial microcirculation was imaged 6 h after induction of EIU. Animals were anesthetized with pentobarbital (i.p., 54 mg/kg). Fifteen minutes before initiating IVM, 0.05% Rhodamine 6G (1.5 mL/kg; Sigma-Aldrich) was injected intravenously (i.v.) to visualize leukocytes within the vasculature, while 5% fluorescein isothiocyanate (FITC) conjugated albumin (i.v., 1 mL/kg; Sigma-Aldrich) was used to visualize blood flow. The iridial microcirculation was observed using an Olympus OV100 Small Animal Imaging System (Olympus, Tokyo, Japan), which contains an MT-20 light source, fluorescence excitation from a xenon lamp (150 W) and an excitation filter for rhodamine-6G (excitation 515–560 nm, emission 590 nm). Images were captured in real-time by a black and white DP70 CCD C-mount camera and digitally recorded using HCImage software (Hamamatsu, Herrsching, Germany).
During IVM animals were placed on a heating pad in a stereotactic frame, and Tear-Gel® (Novartis Pharmaceuticals Canada Inc., Dorval, QC, Canada) was applied to their cornea. The iris was divided into four equal quadrants by drawing two superficial lines on the cornea, lengthwise and widthwise. IVM was carried out in each of these quadrants. Two to four videos of each quadrant were recorded for 30 s each. Videos were analyzed off-line without knowledge of the treatment groups. […] Using ImageJ software (National Institute of Health, Bethesda, MD, USA) the number of adherent leukocytes within each vessel segment was calculated by measuring the diameter and length of vessel segment studied, assuming a cylindrical geometry of blood vessels. Adherent leukocytes were expressed as number of cells per mm^2 of endothelial surface. Rolling leukocytes were classified as cells that moved along the endothelium and crossed a predetermined cross-sectional line of the venule. The number of rolling leukocytes was counted for 30 s and used to calculate the number of rolling leukocytes per min. IVM was conducted 6 h after induction of EIU.
RO6871304, RO6871085, or RO6851228 were applied topically on the left eye (1.5% w/v; 5 μL/animal)) directly after injection of LPS in the same eye. Control animals received vehicle (Tocrisolve) (5 μL/animal) only. HU910 was dissolved for i.v. administration in mixed micelles.

CYP2C9 = CYP2C9 (Homo sapiens, UniProt P11712); experiment: Cytochrome P450 inhibition assay, CYP2C9; assay type: in vitro ADME
Sequence of CYP2C9 (P11712 whole entry): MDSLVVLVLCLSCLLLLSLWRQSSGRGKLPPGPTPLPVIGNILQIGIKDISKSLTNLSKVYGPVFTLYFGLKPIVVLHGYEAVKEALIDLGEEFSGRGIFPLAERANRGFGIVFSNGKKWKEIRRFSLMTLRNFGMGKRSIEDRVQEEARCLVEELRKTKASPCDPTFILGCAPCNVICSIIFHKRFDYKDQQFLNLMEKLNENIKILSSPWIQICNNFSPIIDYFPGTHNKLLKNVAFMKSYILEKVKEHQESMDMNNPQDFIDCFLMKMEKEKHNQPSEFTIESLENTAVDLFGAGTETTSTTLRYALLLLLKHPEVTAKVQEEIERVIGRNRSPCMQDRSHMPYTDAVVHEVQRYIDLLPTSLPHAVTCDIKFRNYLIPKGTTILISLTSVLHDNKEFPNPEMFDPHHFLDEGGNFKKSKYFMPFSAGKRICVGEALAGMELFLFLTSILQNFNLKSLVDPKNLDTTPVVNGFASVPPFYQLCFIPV

[2] = Saturation solubility in selected solvents/vehicles; assay type: physicochemical; conditions: for solubility: thermodynamic from solid; for pH of solution in HP-beta-CD 15% / pH of solution in PEG400 30% / pH of solution in Mixed Micelles / pH of solution in Tocrisolve: solubility sample
Protocol: Saturation Solubility (= Thermodynamic Solubility)
Approximately 8.6 mg test compound per milliliter solvent/vehicle was stirred in HPLC vials (9 × 12 × 32 mm, Waters) at 350 rpm for 15 h. Samples of 10 µL each were taken and microscopically examined for presence of solid particles. If the active pharmacological ingredient (API) dissolved completely, more solid API was added, and stirring was continued for another 15 h. Addition of solid material was repeated up to 96 h or until residual solid particles could be detected. Samples of 0.5 mL were then transferred to Eppendorf Ultrafree filter tubes (Filter: PVDF 0.22 µm) and centrifuged at 14,500 rpm for 10 min. The filtrates were diluted in ethanol and analyzed for content by UPLC. The measurements were also conducted in 0.05 M aqueous phosphate buffer, fasted (FaSSIF), and fed (FeSSIF) simulated gastrointestinal fluid. […]

human CB2R = biological target: T1, human CB2R (Homo sapiens, UniProt P34972); conditions: cited from earlier work; for EC50: read-out: hCB2R: cAMP EC50
T1 construct: bgal (beta-galactosidase fragment of the PathHunter system, named only in the cell line's name); host or cells: CHO-K1 (CHOK1hCB2_bgal)
T1 sequence (P34972 whole entry, the tested form may be a part): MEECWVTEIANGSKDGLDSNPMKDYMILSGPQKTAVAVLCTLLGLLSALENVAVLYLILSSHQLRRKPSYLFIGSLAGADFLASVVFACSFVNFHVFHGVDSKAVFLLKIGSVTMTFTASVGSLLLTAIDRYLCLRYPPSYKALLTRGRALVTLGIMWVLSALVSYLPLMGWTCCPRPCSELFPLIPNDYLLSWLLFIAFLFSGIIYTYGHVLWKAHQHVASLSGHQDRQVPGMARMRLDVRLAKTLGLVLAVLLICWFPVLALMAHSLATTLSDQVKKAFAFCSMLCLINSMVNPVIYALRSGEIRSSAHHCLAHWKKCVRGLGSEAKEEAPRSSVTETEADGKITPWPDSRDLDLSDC

human CB1R [3] = biological target: T2, human CB1R (Homo sapiens, UniProt P21554)
T2 construct: host or cells: CHO
T2 sequence (P21554 whole entry): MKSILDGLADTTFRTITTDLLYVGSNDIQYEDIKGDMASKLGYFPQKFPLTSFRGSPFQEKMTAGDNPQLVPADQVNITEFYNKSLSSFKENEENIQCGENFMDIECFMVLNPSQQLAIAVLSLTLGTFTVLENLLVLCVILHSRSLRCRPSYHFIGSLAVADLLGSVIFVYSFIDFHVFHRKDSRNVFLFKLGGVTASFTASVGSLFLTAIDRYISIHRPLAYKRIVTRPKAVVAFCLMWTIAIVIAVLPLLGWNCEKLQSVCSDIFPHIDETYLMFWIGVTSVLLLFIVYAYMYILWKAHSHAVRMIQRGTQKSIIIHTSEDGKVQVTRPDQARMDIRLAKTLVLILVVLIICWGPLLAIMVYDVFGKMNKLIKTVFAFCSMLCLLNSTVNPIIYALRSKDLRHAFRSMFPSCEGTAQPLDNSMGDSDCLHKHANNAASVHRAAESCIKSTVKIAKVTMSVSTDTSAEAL

human CB1R [4] = biological target: T2, human CB1R; remark: listed apart in the source
[5] = phosphate buffer pH 6.5; * previously published; cited from earlier work
[6] = human hepatocytes; * previously published; cited from earlier work
human P-gp = conditions: human P-gp; * previously published; cited from earlier work
[7] = * previously published; cited from earlier work
[8] = read-out: mouse CB2R: cAMP EC50
[9] = topical 1.5% w/v (5 µL/animal), 6 h after intravitreal LPS, vs LPS + vehicle
[10] = aqueous with cosolvent or surfactant or cyclodextrin, in demin. water, n = 1, HU308 crystalline material, read-out: Solubility in HP-beta-CD 15%
[11] = aqueous with cosolvent or surfactant or cyclodextrin, n = 1, RO6871085 as hydrochloride salt, HU308 crystalline material, > = saturation not achieved, read-out: Solubility in Tocrisolve
[12] = oil or lipid, n = 1, RO6871085 as hydrochloride salt, HU308 crystalline material, > = saturation not achieved, read-out: Solubility in MCT (Miglyol 812)
[13] = pH 6, aqueous with cosolvent or surfactant or cyclodextrin, 200 mM glycocholic acid, 200 mM lecithin in water for injection, pH 6, n = 1, RO6871085 as hydrochloride salt, read-out: Solubility in Mixed Micelles
[14] = RO6871085 as hydrochloride salt
[15] = * previously published; read-out: hCB1R: cAMP EC50; cited from earlier work
[16] = relative to 1 µM CP55940, * previously published
[17] = underlying data previously published
[18] = aqueous with cosolvent or surfactant or cyclodextrin, in demin. water, n = 1, HU308 crystalline material, read-out: Solubility in PEG400 30%

Compound	mouse CB2R: cAMP efficacy (mouse CB2R)	EC50 (mouse CB2R; [8])	adherent leukocytes in the iridial microcirculation [1, 9]	IC50 (CYP2C9; read-out: IC50 CYP2C9)	solubility in Tocrisolve 100 [2]	solubility [2, 10]	solubility [2, 11]	solubility [2, 12]	solubility [2, 13]	pH of solution in HP-beta-CD 15% [2]	pH of solution in PEG400 30% [2]	pH of solution in Mixed Micelles [2, 14]	pH of solution in Tocrisolve [2, 14]	EC50 (human CB1R [3]; [15])	Kinetic Solubility [5]	Hepatocyte Clearance human [6]	P-glycoprotein-Mediated Efflux Extraction Ratio human (human P-gp)	hCB2R: cAMP efficacy (human CB2R; [16])	functional behaviour in hCB2R cAMP assay (human CB2R; [17])	Rolling leukocytes per min ([1]; 6 h after intravitreal LPS)	further results
CCCCCCC(C)(C)c1cc(OC)c(C2=C[C@H]3CC[C@]2(CO)C3(C)C)c(OC)c1 [HU910, {(1S,4R)-2-[2,6-dimethoxy-4-(2-methyloctan-2-yl)phenyl]-7,7-dimethylbicyclo[2.2.1]hept-2-en-1-yl}methanol, reference compound]	99%	3 nM	significantly attenuated	> 50000 nM	good solvent	320 µg/mL (≈ 0.772 mM)	19200 µg/mL	> 87800 µg/mL	4400 µg/mL	6.2	6.0	6.2	6.2	> 10000 nM	< 0.5 µg/mL	9.2 μL/min/Mio cells	2.2	–	–	–	adherent leukocytes in the iridial microcirculation ([1]; 3.0 mg/kg i.v. in mixed micelles, 6 h after LPS, vs LPS + vehicle (p < 0.01)): significantly reduced leukocyte adhesion; time of stirring to full dissolution in Tocrisolve 100 ([2]; data not shown): approximately 72 h; Solubility in PEG400 30% ([2]; in demin. water, n = 1, HU308 crystalline material): < LOD; functional behaviour in hCB2R cAMP assay (human CB2R): full agonists; hCB2R: cAMP efficacy (human CB2R): 4, 98 * %; EC50 (human CB2R): 4 nM; EC50 (human CB1R [4]; * previously published; read-out: hCB1R: beta arrestin EC50; cited from earlier work): > 30000 nM
CCCCCCC(C)(C)c1cc(OC)c([C@H]2C=C(CO)[C@H]3C[C@@H]2C3(C)C)c(OC)c1 [HU308, {(1S,4S,5S)-4-[2,6-Dimethoxy-4-(2-methyloctan-2-yl)phenyl]-6,6-dimethylbicyclo[3.1.1]hept-2-en-2-yl}methanol, reference compound]	99%	–	–	–	considerably lower	20 µg/mL (≈ 0.0482 mM)	1600 µg/mL	> 10300 µg/mL	–	5.7	5.1	–	6.1	–	< 0.75 µg/mL	8.3 μL/min/Mio cells	–	98%	full agonists	–	EC50 (mouse CB2R): 6 nM; IC50 (CYP2C9): > 50000 nM; EC50 (human CB1R [3]; read-out: hCB1R: cAMP EC50; * previously published; cited from earlier work): > 10000 nM; EC50 (human CB1R [4]; read-out: hCB1R: beta arrestin EC50; * previously published; cited from earlier work): > 10000 nM
CNC(=O)[C@@H](NC(=O)c1cc(OCC2(C)COC2)c(C2CC2)cn1)C(C)(C)C [RO6851228, 5-Cyclopropyl-N-[(2S)-3,3-dimethyl-1-(methylamino)-1-oxobutan-2-yl]-4-[(3-methyloxetan-3-yl)methoxy]pyridine-2-carboxamide]	–	–	increased leukocyte-adhesion; also recorded: increases leukocyte adhesion	> 50000 nM	good solvent	35500 µg/mL (≈ 91.1 mM)	15000 µg/mL	> 19000 µg/mL	> 1600 µg/mL	7.6	7.4	6.6	7.3	–	–	12 μL/min/Mio cells	6.5	−159%	inverse agonist	0.45 ± 0.47 per min	hCB2R cAMP EC50/mouse CB2R cAMP EC50 ratio (mouse CB2R): 7; solubility [2, 18]: 5900 µg/mL (≈ 15.1 mM); EC50 (human CB2R; * previously published): 26 nM; hCB1R cAMP EC50/hCB2R cAMP EC50 (human CB2R; functional selectivity, * previously published): >383 *; LogD (at pH 7.4) [7]: 3.21
CC(C)(C)c1nc(N2CC[C@H](O)C2)c2nnn(Cc3nnnn3C3CC3)c2n1 [RO6871304, (3S)-1-{5-tert-butyl-3-[(1-cyclopropyl-1H-tetrazol-5-yl)methyl]-3H-[1,2, 3]triazolo[4,5-d]pyrimidin-7-yl}pyrrolidin-3-ol]	101%	0.5 nM	significantly attenuated; also recorded: most efficacious	16000 nM	considerably lower	7200 µg/mL (≈ 18.7 mM)	1300 µg/mL	2300 µg/mL	> 1800 µg/mL	6.0	6.1	6.6	5.7	> 10000 nM	162 ± 2 µg/mL	15 μL/min/Mio cells	–	102%	full agonists	0.05 ± 0.07 per min	solubility [2, 18]: 200 µg/mL (≈ 0.52 mM); EC50 (human CB2R; * previously published): 1 nM; LogD (at pH 7.4) [7]: 2.78
